Experiments:
Rattus norvegicus [1] = experiment: Antiarrhythmic activity in barium chloride-induced Wistar rat assessed as increase in appearance time of arrhythmia at 40 mg/kg, ip administered 60 mins before barium chloride challenge (reference value: 129.4 +/- 4.373 sec); type: functional, Heart; settings: route intraperitoneal
Rattus norvegicus [2] = experiment: Toxicity in anesthetized-normotensive Wistar rat assessed as heart rate at 40 mg/kg, ip after 60 mins (reference value: 314.96 +/- 9.442 bpm); type: organism-based; parameters: dose 40 mg/kg, route intraperitoneal; settings: in vivo, 1 h
Rattus norvegicus [3] = experiment: Toxicity in anaesthetized-Wistar rat assessed as Q-T ECG interval at 40 mg/kg, ip after 15 mins (reference value: 79.4 +/- 1.270 ms); type: organism-based; parameters: dose 40 mg/kg, route intraperitoneal; settings: in vivo, 0.25 h
Rattus norvegicus [4] = experiment: Toxicity in anesthetized-normotensive Wistar rat assessed as heart rate at 40 mg/kg, ip after 45 mins (reference value: 316.82 +/- 8.452 bpm); type: organism-based; parameters: dose 40 mg/kg, route intraperitoneal; settings: in vivo, 0.75 h
Rattus norvegicus [5] = experiment: Toxicity in […] normotensive Wistar rat assessed as mean arterial pressure at 40 mg/kg, ip after 30 mins (reference value: 94.68 +/- 1.213 mmHg); type: organism-based, Artery; parameters: dose 40 mg/kg, route intraperitoneal; settings: in vivo, 0.5 h
Rattus norvegicus [6] = experiment: Antihypertensive activity in Wistar rat assessed as mean arterial pressure at 40 mg/kg, ip measured immediately at 0 min (reference value: 194.08 +/- 1.962 mmHg); type: functional, Artery; settings: route intraperitoneal
Rattus norvegicus [7] = experiment: Toxicity in anesthetized-normotensive Wistar rat assessed as heart rate at 40 mg/kg, ip measured immediately at 0 min (reference value: 316.62 +/- 9.643 bpm); type: organism-based; parameters: dose 40 mg/kg, route intraperitoneal; settings: in vivo, 0 h
Rattus norvegicus [8] = experiment: Antiarrhythmic activity in barium chloride-induced Wistar rat assessed as increase in mortality time at 40 mg/kg, ip administered 60 mins before barium chloride challenge (reference value: 682.8 +/- 9.656 secs); type: functional, Heart; settings: route intraperitoneal
Rattus norvegicus [9] = experiment: Toxicity in anaesthetized-Wistar rat assessed as P-Q ECG interval at 40 mg/kg, ip measured immediately at 0 min (reference value: 52.4 +/- 0.927 ms); type: organism-based; parameters: dose 40 mg/kg, route intraperitoneal; settings: in vivo, 0 h
Rattus norvegicus [10] = experiment: Toxicity in […] normotensive Wistar rat assessed as mean arterial pressure at 40 mg/kg, ip after 60 mins (reference value: 95.07 +/- 1.973 mmHg); type: organism-based, Artery; parameters: dose 40 mg/kg, route intraperitoneal; settings: in vivo, 1 h
Rattus norvegicus [11] = experiment: Toxicity in anaesthetized-Wistar rat assessed as P-Q ECG interval at 40 mg/kg, ip after 15 mins (reference value: 52.2 +/- 1.158 ms); type: organism-based; parameters: dose 40 mg/kg, route intraperitoneal; settings: in vivo, 0.25 h
Rattus norvegicus [12] = experiment: Toxicity in […] normotensive Wistar rat assessed as mean arterial pressure at 40 mg/kg, ip after 45 mins (reference value: 94.83 +/- 0.943 mmHg); type: organism-based, Artery; parameters: dose 40 mg/kg, route intraperitoneal; settings: in vivo, 0.75 h
Rattus norvegicus [13] = experiment: Antihypertensive activity in Wistar rat assessed as mean arterial pressure at 40 mg/kg, ip after 15 mins (reference value: 195.68 +/- 1.623 mmHg); type: functional, Artery; settings: route intraperitoneal
Rattus norvegicus [14] = experiment: Toxicity in anesthetized-normotensive Wistar rat assessed as heart rate at 40 mg/kg, ip after 15 mins (reference value: 313.93 +/- 9.912 bpm); type: organism-based; parameters: dose 40 mg/kg, route intraperitoneal; settings: in vivo, 0.25 h
Rattus norvegicus [15] = experiment: Toxicity in anaesthetized-Wistar rat assessed as QRS ECG interval at 40 mg/kg, ip after 45 mins (reference value: 20.2 +/- 1.348 ms); type: organism-based; parameters: dose 40 mg/kg, route intraperitoneal; settings: in vivo, 0.75 h
Rattus norvegicus [16] = experiment: Toxicity in anesthetized-normotensive Wistar rat assessed as heart rate at 40 mg/kg, ip after 30 mins (reference value: 317.68 +/- 7.631 bpm); type: organism-based; parameters: dose 40 mg/kg, route intraperitoneal; settings: in vivo, 0.5 h
Rattus norvegicus [17] = experiment: Toxicity in anaesthetized-Wistar rat assessed as Q-T ECG interval at 40 mg/kg, ip after 30 mins (reference value: 78.3 +/- 0.860 ms); type: organism-based; parameters: dose 40 mg/kg, route intraperitoneal; settings: in vivo, 0.5 h
Rattus norvegicus [18] = experiment: Toxicity in anaesthetized-Wistar rat assessed as P-Q ECG interval at 40 mg/kg, ip after 45 mins (reference value: 52.5 +/- 0.780 ms); type: organism-based; parameters: dose 40 mg/kg, route intraperitoneal; settings: in vivo, 0.75 h
Rattus norvegicus [19] = experiment: Toxicity in […] normotensive Wistar rat assessed as mean arterial pressure at 40 mg/kg, ip after 15 mins (reference value: 93.81 +/- 1.543 mmHg); type: organism-based, Artery; parameters: dose 40 mg/kg, route intraperitoneal; settings: in vivo, 0.25 h
Rattus norvegicus [20] = experiment: Toxicity in anaesthetized-Wistar rat assessed as QRS ECG interval at 40 mg/kg, ip after 30 mins (reference value: 19.9 +/- 1.393 ms); type: organism-based; parameters: dose 40 mg/kg, route intraperitoneal; settings: in vivo, 0.5 h
Rattus norvegicus [21] = experiment: Toxicity in anaesthetized-Wistar rat assessed as P-Q ECG interval at 40 mg/kg, ip after 60 mins (reference value: […] +/- 0.924 ms); type: organism-based; parameters: dose 40 mg/kg, route intraperitoneal; settings: in vivo, 1 h
Rattus norvegicus [22] = experiment: Antihypertensive activity in Wistar rat assessed as mean arterial pressure at 40 mg/kg, ip after 30 mins (reference value: 194.72 +/- 1.002 mmHg); type: functional, Artery; settings: route intraperitoneal
Rattus norvegicus [23] = experiment: Toxicity in anaesthetized-Wistar rat assessed as QRS ECG interval at 40 mg/kg, ip after 15 mins (reference value: 18.9 +/- 1.563 ms); type: organism-based; parameters: dose 40 mg/kg, route intraperitoneal; settings: in vivo, 0.25 h
Rattus norvegicus [24] = experiment: Toxicity in anaesthetized-Wistar rat assessed as Q-T ECG interval at 40 mg/kg, ip after 45 mins (reference value: 78.8 +/- 0.927 ms); type: organism-based; parameters: dose 40 mg/kg, route intraperitoneal; settings: in vivo, 0.75 h
Rattus norvegicus [25] = experiment: Antihypertensive activity in Wistar rat assessed as mean arterial pressure at 40 mg/kg, ip after 45 mins (reference value: 193.96 +/- 0.865 mmHg); type: functional, Artery; settings: route intraperitoneal
Rattus norvegicus [26] = experiment: Toxicity in anaesthetized-Wistar rat assessed as QRS ECG interval at 40 mg/kg, ip measured immediately at 0 min (reference value: 19.6 +/- 1.142 ms); type: organism-based; parameters: dose 40 mg/kg, route intraperitoneal; settings: in vivo, 0 h
Rattus norvegicus [27] = experiment: Toxicity in anaesthetized-Wistar rat assessed as QRS ECG interval at 40 mg/kg, ip after 60 mins (reference value: 19.3 +/- 0.873 ms); type: organism-based; parameters: dose 40 mg/kg, route intraperitoneal; settings: in vivo, 1 h
Rattus norvegicus [28] = experiment: Toxicity in anaesthetized-Wistar rat assessed as Q-T ECG interval at 40 mg/kg, ip after 60 mins (reference value: 79.7 +/- 0.965 ms); type: organism-based; parameters: dose 40 mg/kg, route intraperitoneal; settings: in vivo, 1 h
Rattus norvegicus [29] = experiment: Antihypertensive activity in Wistar rat assessed as mean arterial pressure at 40 mg/kg, ip after 60 mins (reference value: 195.11 +/- 0.531 mmHg); type: functional, Artery; settings: route intraperitoneal
Rattus norvegicus [30] = experiment: Toxicity in […] normotensive Wistar rat assessed as mean arterial pressure at 40 mg/kg, ip measured immediately at 0 min (reference value: 94.21 +/- 2.065 mmHg); type: organism-based, Artery; parameters: dose 40 mg/kg, route intraperitoneal; settings: in vivo, 0 h
Rattus norvegicus [31] = experiment: Toxicity in anaesthetized-Wistar rat assessed as P-Q ECG interval at 40 mg/kg, ip after 30 mins (reference value: […] +/- 0.927 ms); type: organism-based; parameters: dose 40 mg/kg, route intraperitoneal; settings: in vivo, 0.5 h
Rattus norvegicus [32] = experiment: Toxicity in anaesthetized-Wistar rat assessed as Q-T ECG interval at 40 mg/kg, ip measured immediately at 0 min (reference value: 78.8 +/- 1.030 ms); type: organism-based; parameters: dose 40 mg/kg, route intraperitoneal; settings: in vivo, 0 h

For CCN(CC)CC(O)CN1C(=O)/C(=C\c2ccccc2)S/C1=N\c1ccccc1 (centres undefined), the Time (Rattus norvegicus [1]) was 343.1 s, the Activity (Rattus norvegicus [2]) was 312.28 bpm and the Activity (Rattus norvegicus [3]) was 81.4 min. The Activity (Rattus norvegicus [4]) was 309.56 bpm, the Activity (Rattus norvegicus [5]) was 68.93 mmHg and the Activity (Rattus norvegicus [6]) was 194.43 mmHg. For the same compound, the Activity (Rattus norvegicus [7]) was 319.65 bpm, the Time (Rattus norvegicus [8]) was 1142.4 s and the Activity (Rattus norvegicus [9]) was 52 ms. The Activity (Rattus norvegicus [10]) was 73.31 mmHg, the Activity (Rattus norvegicus [11]) was 52.2 min and the Activity (Rattus norvegicus [12]) was 63.51 mmHg. It also gave an Activity (Rattus norvegicus [13]) of 172.98 mmHg, an Activity (Rattus norvegicus [14]) of 312.24 bpm and an Activity (Rattus norvegicus [15]) of 20.6 min. It also gave an Activity (Rattus norvegicus [16]) of 274.66 bpm, an Activity (Rattus norvegicus [17]) of 83.2 min and an Activity (Rattus norvegicus [18]) of 54.2 min. For the same compound, the Activity (Rattus norvegicus [19]) was 79.23 mmHg, the Activity (Rattus norvegicus [20]) was 21.2 ms and the Activity (Rattus norvegicus [21]) was 55.6 min. The Activity (Rattus norvegicus [22]) was 161.27 mmHg, the Activity (Rattus norvegicus [23]) was 19.4 min and the Activity (Rattus norvegicus [24]) was 84.8 min. For the same compound, the Activity (Rattus norvegicus [25]) was 119.43 mmHg, the Activity (Rattus norvegicus [26]) was 18.4 min and the Activity (Rattus norvegicus [27]) was 21.4 min. The Activity (Rattus norvegicus [28]) was 86.4 ms, the Activity (Rattus norvegicus [29]) was 159.87 mmHg and the Activity (Rattus norvegicus [30]) was 91.39 mmHg. The Activity (Rattus norvegicus [31]) was 53.8 min and the Activity (Rattus norvegicus [32]) was 80.4 min.
Work on O=C1/C(=C\c2ccccc2)S/C(=N\c2ccccc2)N1CC(O)CN(c1ccccc1)c1ccccc1 (centres undefined) yielded a Time (Rattus norvegicus [1]) of 234.8 s, an Activity (Rattus norvegicus [2]) of 302.92 bpm and an Activity (Rattus norvegicus [3]) of 71.5 min. The Activity (Rattus norvegicus [4]) was 289.26 bpm, the Activity (Rattus norvegicus [5]) was 85.08 mmHg and the Activity (Rattus norvegicus [6]) was 194.26 mmHg. The Activity (Rattus norvegicus [7]) was 316.34 bpm, the Time (Rattus norvegicus [8]) was 768.5 s and the Activity (Rattus norvegicus [9]) was 50.6 ms. It also gave an Activity (Rattus norvegicus [10]) of 90.27 mmHg, an Activity (Rattus norvegicus [11]) of 51.2 min and an Activity (Rattus norvegicus [12]) of 85.43 mmHg. It also gave an Activity (Rattus norvegicus [13]) of 183.55 mmHg, an Activity (Rattus norvegicus [14]) of 305.46 bpm and an Activity (Rattus norvegicus [15]) of 21.6 min. The Activity (Rattus norvegicus [16]) was 292.41 bpm, the Activity (Rattus norvegicus [17]) was 72.3 min and the Activity (Rattus norvegicus [18]) was 53.4 min. It also gave an Activity (Rattus norvegicus [19]) of 87.32 mmHg, an Activity (Rattus norvegicus [20]) of 22.1 ms and an Activity (Rattus norvegicus [21]) of 52.6 min. The Activity (Rattus norvegicus [22]) was 169.59 mmHg, the Activity (Rattus norvegicus [23]) was 21.2 min and the Activity (Rattus norvegicus [24]) was 0.00119 min. The Activity (Rattus norvegicus [25]) was 159.27 mmHg, the Activity (Rattus norvegicus [26]) was 20.3 min and the Activity (Rattus norvegicus [27]) was 20.4 min. The Activity (Rattus norvegicus [28]) was 70.7 ms, the Activity (Rattus norvegicus [29]) was 169.93 mmHg and the Activity (Rattus norvegicus [30]) was 94.09 mmHg. It also gave an Activity (Rattus norvegicus [31]) of 54.1 min and an Activity (Rattus norvegicus [32]) of 70.2 min.

Source: ChEMBL document CHEMBL3232945 (Eur J Med Chem, 2014)
